Reference: PubChem BioAssay (NCI)
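These data come from cells grown in 96-well plates and exposed to compound for 48 hours at five concentrations. The concentration for 50% growth inhibition is given as GI50. TGI is the concentration that stops growth completely.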

What was measured:
Assay in all cases: NCI anticancer screen, dose series, 48 h
SNB-19 CNS = test system: SNB-19 CNS
SN12C renal = test system: SN12C renal
RXF 393 renal = test system: RXF 393 renal
SF-295 CNS = test system: SF-295 CNS
T-47D breast = test system: T-47D breast
MCF7 breast = test system: MCF7 breast
OVCAR-4 ovarian = test system: OVCAR-4 ovarian
A498 renal = test system: A498 renal
RPMI-8226 leukemia = test system: RPMI-8226 leukemia
SK-OV-3 ovarian = test system: SK-OV-3 ovarian
MOLT-4 leukemia = test system: MOLT-4 leukemia
HCT-15 colon = test system: HCT-15 colon
NCI-H522 lung = test system: NCI-H522 lung
A549 NSCLC = test system: A549 NSCLC
M14 melanoma = test system: M14 melanoma
BT-549 breast = test system: BT-549 breast
COLO 205 colon = test system: COLO 205 colon
HOP-62 NSCLC = test system: HOP-62 NSCLC
OVCAR-8 ovarian = test system: OVCAR-8 ovarian
SF-539 CNS = test system: SF-539 CNS
SK-MEL-5 melanoma = test system: SK-MEL-5 melanoma
UACC-257 melanoma = test system: UACC-257 melanoma
UO-31 renal = test system: UO-31 renal
KM12 colon = test system: KM12 colon
CAKI-1 renal = test system: CAKI-1 renal
K-562 leukemia = test system: K-562 leukemia
NCI-H460 lung = test system: NCI-H460 lung
NCI/ADR-RES ovarian = test system: NCI/ADR-RES ovarian
SNB-75 CNS = test system: SNB-75 CNS
SW-620 colon = test system: SW-620 colon
SK-MEL-28 melanoma = test system: SK-MEL-28 melanoma
CCRF-CEM leukemia = test system: CCRF-CEM leukemia
SK-MEL-2 melanoma = test system: SK-MEL-2 melanoma
HCT-116 colon = test system: HCT-116 colon
NCI-H226 lung = test system: NCI-H226 lung
OVCAR-5 ovarian = test system: OVCAR-5 ovarian
OVCAR-3 ovarian = test system: OVCAR-3 ovarian
786-0 renal = test system: 786-0 renal
HOP-92 NSCLC = test system: HOP-92 NSCLC
LOX IMVI melanoma = test system: LOX IMVI melanoma
PC-3 prostate = test system: PC-3 prostate
ACHN renal = test system: ACHN renal
MDA-MB-435 = test system: MDA-MB-435
UACC-62 melanoma = test system: UACC-62 melanoma
HS 578T breast = test system: HS 578T breast
SR leukemia = test system: SR leukemia
HT29 colon = test system: HT29 colon
SF-268 CNS = test system: SF-268 CNS
DU-145 prostate = test system: DU-145 prostate
NCI-H23 lung = test system: NCI-H23 lung
TK-10 renal = test system: TK-10 renal
MDA-MB-231 breast = test system: MDA-MB-231 breast
HCC-2998 colon = test system: HCC-2998 colon
HL-60(TB) leukemia = test system: HL-60(TB) leukemia
U251 CNS = test system: U251 CNS
IGROV1 ovarian = test system: IGROV1 ovarian
EKVX NSCLC = test system: EKVX NSCLC
MALME-3M melanoma = test system: MALME-3M melanoma

In the case of Clc1cc2c(nn1)Nc1ccccc1S2, the GI50 (SNB-19 CNS) is reported as > 100 µM, the TGI (SNB-19 CNS) is reported as > 100 µM and the GI50 (SN12C renal) is reported as > 100 µM. The TGI (SN12C renal) was > 100 µM, the GI50 (RXF 393 renal) was > 100 µM and the TGI (RXF 393 renal) was > 100 µM. The GI50 (SF-295 CNS) was > 100 µM, the TGI (SF-295 CNS) was > 100 µM and the GI50 (T-47D breast) was > 100 µM. The TGI (T-47D breast) was > 100 µM, the GI50 (MCF7 breast) was > 100 µM and the TGI (MCF7 breast) was > 100 µM. For the same compound, the GI50 (OVCAR-4 ovarian) was > 100 µM, the TGI (OVCAR-4 ovarian) was > 100 µM and the GI50 (A498 renal) was > 100 µM. The TGI (A498 renal) was > 100 µM, the GI50 (RPMI-8226 leukemia) was > 100 µM and the TGI (RPMI-8226 leukemia) was > 100 µM. For the same compound, the GI50 (SK-OV-3 ovarian) was > 100 µM, the TGI (SK-OV-3 ovarian) was > 100 µM and the GI50 (MOLT-4 leukemia) was > 100 µM. The TGI (MOLT-4 leukemia) was > 100 µM, the GI50 (HCT-15 colon) was > 100 µM and the TGI (HCT-15 colon) was > 100 µM. The GI50 (NCI-H522 lung) was > 100 µM, the TGI (NCI-H522 lung) was > 100 µM and the GI50 (A549 NSCLC) was > 100 µM. For the same compound, the TGI (A549 NSCLC) was > 100 µM, the GI50 (M14 melanoma) was > 100 µM and the TGI (M14 melanoma) was > 100 µM. For the same compound, the GI50 (BT-549 breast) was > 100 µM, the TGI (BT-549 breast) was > 100 µM and the GI50 (COLO 205 colon) was > 100 µM. The TGI (COLO 205 colon) was > 100 µM, the GI50 (HOP-62 NSCLC) was > 100 µM and the TGI (HOP-62 NSCLC) was > 100 µM. The GI50 (OVCAR-8 ovarian) was > 100 µM, the TGI (OVCAR-8 ovarian) was > 100 µM and the GI50 (SF-539 CNS) was > 100 µM. For the same compound, the TGI (SF-539 CNS) was > 100 µM, the GI50 (SK-MEL-5 melanoma) was > 100 µM and the TGI (SK-MEL-5 melanoma) was > 100 µM. For the same compound, the GI50 (UACC-257 melanoma) was > 100 µM, the TGI (UACC-257 melanoma) was > 100 µM and the GI50 (UO-31 renal) was > 100 µM. The TGI (UO-31 renal) was > 100 µM, the GI50 (KM12 colon) was > 100 µM and the TGI (KM12 colon) was > 100 µM. For the same compound, the GI50 (CAKI-1 renal) was > 100 µM, the TGI (CAKI-1 renal) was > 100 µM and the GI50 (K-562 leukemia) was > 100 µM. The TGI (K-562 leukemia) was > 100 µM, the GI50 (NCI-H460 lung) was > 100 µM and the TGI (NCI-H460 lung) was > 100 µM. The GI50 (NCI/ADR-RES ovarian) was > 100 µM, the TGI (NCI/ADR-RES ovarian) was > 100 µM and the GI50 (SNB-75 CNS) was > 100 µM. For the same compound, the TGI (SNB-75 CNS) was > 100 µM, the GI50 (SW-620 colon) was > 100 µM and the TGI (SW-620 colon) was > 100 µM. The GI50 (SK-MEL-28 melanoma) was > 100 µM, the TGI (SK-MEL-28 melanoma) was > 100 µM and the GI50 (CCRF-CEM leukemia) was > 100 µM. For the same compound, the TGI (CCRF-CEM leukemia) was > 100 µM, the GI50 (SK-MEL-2 melanoma) was > 100 µM and the TGI (SK-MEL-2 melanoma) was > 100 µM. For the same compound, the GI50 (HCT-116 colon) was > 100 µM, the TGI (HCT-116 colon) was > 100 µM and the GI50 (NCI-H226 lung) was > 100 µM. For the same compound, the TGI (NCI-H226 lung) was > 100 µM, the GI50 (OVCAR-5 ovarian) was > 100 µM and the TGI (OVCAR-5 ovarian) was > 100 µM. For the same compound, the GI50 (OVCAR-3 ovarian) was > 100 µM, the TGI (OVCAR-3 ovarian) was > 100 µM and the GI50 (786-0 renal) was > 100 µM. For the same compound, the TGI (786-0 renal) was > 100 µM, the GI50 (HOP-92 NSCLC) was > 100 µM and the TGI (HOP-92 NSCLC) was > 100 µM. The GI50 (LOX IMVI melanoma) was > 100 µM, the TGI (LOX IMVI melanoma) was > 100 µM and the GI50 (PC-3 prostate) was > 100 µM. The TGI (PC-3 prostate) was > 100 µM, the GI50 (ACHN renal) was > 100 µM and the TGI (ACHN renal) was > 100 µM. The GI50 (MDA-MB-435) was > 100 µM, the TGI (MDA-MB-435) was > 100 µM and the GI50 (UACC-62 melanoma) was > 100 µM. For the same compound, the TGI (UACC-62 melanoma) was > 100 µM, the GI50 (HS 578T breast) was 38.4 µM and the TGI (HS 578T breast) was > 100 µM. For the same compound, the GI50 (SR leukemia) was > 100 µM, the TGI (SR leukemia) was > 100 µM and the GI50 (HT29 colon) was > 100 µM. The TGI (HT29 colon) was > 100 µM, the GI50 (SF-268 CNS) was > 100 µM and the TGI (SF-268 CNS) was > 100 µM. For the same compound, the GI50 (DU-145 prostate) was > 100 µM, the TGI (DU-145 prostate) was > 100 µM and the GI50 (NCI-H23 lung) was > 100 µM. For the same compound, the TGI (NCI-H23 lung) was > 100 µM, the GI50 (TK-10 renal) was > 100 µM and the TGI (TK-10 renal) was > 100 µM. For the same compound, the GI50 (MDA-MB-231 breast) was > 100 µM, the TGI (MDA-MB-231 breast) was > 100 µM and the GI50 (HCC-2998 colon) was > 100 µM. The TGI (HCC-2998 colon) was > 100 µM, the GI50 (HL-60(TB) leukemia) was > 100 µM and the TGI (HL-60(TB) leukemia) was > 100 µM. The GI50 (U251 CNS) was > 100 µM, the TGI (U251 CNS) was > 100 µM and the GI50 (IGROV1 ovarian) was > 100 µM. For the same compound, the TGI (IGROV1 ovarian) was > 100 µM, the GI50 (EKVX NSCLC) was 35.6 µM and the TGI (EKVX NSCLC) was > 100 µM. The GI50 (MALME-3M melanoma) was > 100 µM and the TGI (MALME-3M melanoma) was > 100 µM.
